# US20240368133A1, “Compounds for the Treatment of Pain, in Particular, Neuropathic Pain, and/or Other Diseases or Disorders that are Associated with AT2R and/or AT2R Mediated Signaling” (Confo Therapeutics N.V., priority 2021, published 2024)
# What was measured:
# human AT1R = human AT1R (Homo sapiens (Human), UniProt P30556); assay: Counterscreen radioligand binding assay, displacement of 125I-[Sar1, Ile8]-Angiotensin II, hAT1R WT; conditions: for inhibition at 1 µM / inhibition at 10 µM: 125I-[Sar1, Ile8]-Ang II, semi-quantitative score; for inhibition at 1 µM: compound at 1 μM, read-out: % Displaced radioligand at 1 μM; for inhibition at 10 µM: compound at 10 μM, read-out: % Displaced radioligand at 10 μM; for IC50: HEK-293 cell membranes, read-out: Binding affinity On hAT1R IC50
# Procedure, shortened: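 Membranes from HEK-293 cells expressing human AT1R were incubated for one hour at 25° C, pH 7.4, with 0.05 nM radiolabelled [Sar1, Ile8]-Ang II and test ligand. Bound radioactivity was collected on PEI-soaked filters, with 10 μM unlabelled [Sar1]-Ang II defining non-specific binding. Results are percent displacement at 1 μM and […], or IC50 from eight-point duplicate curves.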
# CYP1A2 = CYP1A2 (Homo sapiens (Human), UniProt P05177); assay: in vitro
# Method: The aim of this assay is to determine the inhibitory potential of a test compound. A major concern for drug-drug-interaction is cytochrome P450 inhibition. Reversible CYP inhibition was determined in human liver microsomes using specific probe substrates for human cytochrome P450 isoenzymes CYP1A2, 2C9, 2C19, 2D6 and 3A4.
# The potential for CYP450 inhibition was assessed by performing in vitro inhibition studies using fluorogenic CYP450 substrates with the corresponding CYP450 enzymes and NADPH regeneration system (Vivid CYP450 Screening Kits) with some minor changes to the manufacturer's protocols. The fluorescent signal produced from reaction is directly proportional to the cytochrome P450 activity. In the cases when tested compounds interfere with the CYP450 enzyme-substrate reaction, the fluorescent signal decreases. In brief, the tested compounds were first dissolved in DMSO at 100× concentration (1 mM), and diluted in buffer to 2.5× concentration (25 μM). Then the 2.5× compound solutions were mixed with the Master Pre-mix consisting of Human CYP450+Oxidoreductase and NADP+Regeneration System (glucose-6-phosphate and glucose-6-phosphate dehydrogenase). After 10 minutes pre-incubation, the enzymatic reaction was initiated by the addition of a mix of NADPH and the appropriate CYP450 substrates. The plate was incubated for the desired reaction time (25 min for CYP1A2, CYP2C9, CYP2D6, and CYP3A4, 60 min for CYP2C19) after which Stop Reagent was added and fluorescence measured using SpectraMax Paradigm Multi-Mode Microplate Reader. All test points were performed in quadruplicates at concentration 10 μM (1% DMSO).
# A 10 mM stock solution of test compound is prepared in methanol. This stock is further serially diluted 1:3 in methanol and then added to mixture containing 50 mM potassium phosphate buffer pH7.4, human liver microsomes (BD Gentest) and probe substrate. After pre-warming 5 min at 37° C., the reaction is started by adding co-factor mix ([…] glucose-6-phosphate, 1.7 mg/mL NADP, 6 U/mL of glucose-6-phosphate dehydrogenase), resulting in a final concentration of test compound at 10 μM (2% MeOH).
# Final concentrations of co-factor mix components are as follows: 1.56 mg/mL glucose-6-phosphate, 0.34 mg/mL NADP, 1.2 U/mL of glucose-6-phosphate dehydrogenase.
# After incubation at 37° C., the reaction (aliquot of 50 μL) is terminated with 150 μL CH3CN:MeOH (2:1) solution with internal standard (warfarin for 2C9, diclofenac for all other tested isoforms). Samples are centrifuged and the supernatant fractions analyzed by LC-MS/MS.
# The instrument responses (ratio of test compound and internal standard peak areas) are referenced to those for solvent controls (assumed as 100%) in order to determine the percentage reduction in probe metabolism. Percent of control activity vs. concentration plots are generated and fitted using GraphPad Prism software to generate IC50.
# human AT1R, sequence (P30556 whole entry): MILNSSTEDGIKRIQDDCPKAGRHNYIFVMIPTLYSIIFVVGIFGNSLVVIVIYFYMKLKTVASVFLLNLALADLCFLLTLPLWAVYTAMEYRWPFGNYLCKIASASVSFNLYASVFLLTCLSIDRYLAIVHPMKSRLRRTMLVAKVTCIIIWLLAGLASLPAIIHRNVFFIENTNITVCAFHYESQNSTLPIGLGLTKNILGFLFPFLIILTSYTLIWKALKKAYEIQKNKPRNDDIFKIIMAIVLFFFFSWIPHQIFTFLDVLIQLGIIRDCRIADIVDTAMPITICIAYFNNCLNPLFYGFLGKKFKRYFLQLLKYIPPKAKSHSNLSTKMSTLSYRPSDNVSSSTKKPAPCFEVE
# CYP1A2, sequence (P05177 whole entry): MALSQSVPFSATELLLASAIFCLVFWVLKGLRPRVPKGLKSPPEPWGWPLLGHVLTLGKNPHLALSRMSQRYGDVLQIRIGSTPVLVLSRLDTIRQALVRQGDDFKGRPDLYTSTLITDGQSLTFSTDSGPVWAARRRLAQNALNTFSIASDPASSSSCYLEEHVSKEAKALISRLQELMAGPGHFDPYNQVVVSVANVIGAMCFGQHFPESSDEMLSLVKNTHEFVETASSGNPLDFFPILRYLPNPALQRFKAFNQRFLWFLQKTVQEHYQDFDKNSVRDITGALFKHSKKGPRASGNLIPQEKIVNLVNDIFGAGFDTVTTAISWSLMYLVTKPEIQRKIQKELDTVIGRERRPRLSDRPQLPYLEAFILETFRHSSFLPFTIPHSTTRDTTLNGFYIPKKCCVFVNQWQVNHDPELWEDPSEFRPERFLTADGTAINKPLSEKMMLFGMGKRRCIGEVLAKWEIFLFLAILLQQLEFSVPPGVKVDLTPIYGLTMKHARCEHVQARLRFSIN
inhibition at 1 µM (human AT1R),inhibition at 10 µM (human AT1R),IC50 (human AT1R),inhibition at 10 µM (CYP1A2),SMILES
< 30%,< 30%,36.5 µM,–,"CCCCOC(=O)NS(=O)(=O)c1ccc(C(F)(F)F)cc1N1CCN(Cc2nc3ccccc3n2C)CC1 [Compound A-09, butyl N-[2-[4-[(1-methylbenzimidazol-2-yl)methyl]piperazin-1-yl]-4-(trifluoromethyl)phenyl]sulfonylcarbamate]"
< 30%,< 30%,–,23%,"CCCCNC(=O)NS(=O)(=O)c1ccc(C(F)(F)F)cc1N1CCN(Cc2nc3ccccc3n2C)CC1 [Compound A-10, 1-butyl-3-[2-[4-[(1-methylbenzimidazol-2-yl)methyl]piperazin-1-yl]-4-(trifluoromethyl)phenyl]sulfonyl-urea]"
< 30%,< 30%,–,–,"CCCCNC(=O)NS(=O)(=O)c1ccc(C)cc1N1CCN(Cc2nc3ccccc3n2C)CC1 [Compound A-12, 1-butyl-3-[4-methyl-2-[4-[(1-methylbenzimidazol-2-yl)methyl]piperazin-1-yl]phenyl]sulfonyl-urea]"
< 30%,< 30%,49.7 µM,–,"CC(C)Cc1ccc(-c2nn[nH]n2)c(N2CCN(Cc3nc4ccccc4n3C)CC2)c1 [Compound A-20, 2-[[4-[5-isobutyl-2-(2H-tetrazol-5-yl)-phenyl]piperazin-1-yl]methyl]-1-meth-yl-benzimidazole]"
< 30%,< 30%,–,27.4%,"CC(C)Oc1ccc(-c2nn[nH]n2)c(N2CCN(Cc3nc4ccccc4n3C)CC2)c1 [Compound A-24, 2-[[4-[5-isopropoxy-2-(2H-tetrazol-5-yl)phenyl]piperazin-1-yl]methyl]-1-methyl-benzimidazole]"
< 30%,< 30%,–,6.09%,"CC(C)Cc1ccc(-c2nn[nH]n2)c(N2CCN(Cc3nc4ccccc4c(=O)[nH]3)CC2)c1 [Compound A-31, 2-[[4-[5-isobutyl-2-(2H-tetrazol-5-yl)phenyl]piperazin-1-yl]methyl]-3H-quinazolin-4-one]"
< 30%,< 30%,–,7.17%,CC(C)Oc1ccc(-c2nn[nH]n2)c(N2CCN(Cc3nc4ccccc4c(=O)[nH]3)CC2)c1 [Compound A-32]
< 30%,< 30%,55 µM,–,"CC(C)Oc1ccc(-c2nn[nH]n2)c(N2CCN(Cc3nc4ccccc4s3)CC2)c1 [Compound A-51, 2-[[4-[5-isoprop-oxy-2-(2H-tetrazol-5-yl)phenyl]piper-azin-1-yl]methyl]-1,3-benzothiazole]"
< 30%,< 30%,–,9.89%,"Cc1cc(CN2CCN(c3cc(CC(C)C)ccc3-c3nn[nH]n3)CC2)no1 [Compound A-82, 3-[[4-[5-isobutyl-2-(2H-tetrazol-5-yl)phenyl]piperazin-1-yl]methyl]-5-methyl-isoxazole]"
< 30%,< 30%,–,2.61%,"CC(C)Cc1ccc(-c2nn[nH]n2)c(N2CCN(Cc3nccn3C)CC2)c1 [Compound A-83, 1-[5-isobutyl-2-(2H-tetrazol-5-yl)-phenyl]-4-[(1-meth-ylimidazol-2-yl)-methyl]piperazine]"
< 30%,< 30%,–,5.6%,"CC(C)Cc1ccc(-c2nn[nH]n2)c(N2CCN(Cc3ccnn3C)CC2)c1 [Compound A-84, 1-[5-isobutyl-2-(2H-tetrazol-5-yl)phenyl]-4-[(1-methylpyrazol-5-yl)methyl]piperazine]"
< 30%,< 30%,–,22.5%,CC(C)Cc1ccc(-c2nn[nH]n2)c(N2CCN(Cc3ncccn3)CC2)c1 [Compound A-88]
< 30%,< 30%,–,10.3%,"CC(C)Cc1ccc(-c2nn[nH]n2)c(N2CCN(Cc3cccnn3)CC2)c1 [Compound A-90, 3-[[4-[5-isobutyl-2-(2H-tetrazol-5-yl)phenyl]piperazin-1-yl]methyl]pyridazine]"
< 30%,< 30%,–,18.5%,"CC(C)Cc1cc(F)c(-c2nn[nH]n2)c(N2CCN(Cc3cccnn3)C(C)C2)c1 (stereo not shown) [Compound A-173, 3-[[4-[3-fluoro-5-isobutyl-2-(2H-tetrazol-5-yl)phenyl]-2-methyl-piperazin-1-yl]methyl]pyridazine]"
< 30%,< 30%,–,22.7%,"CC(C)Cc1cc(F)c(-c2nn[nH]n2)c(N2CCN(Cc3cccnn3)[C@@H](C)C2)c1 [Compound A-174, 3-[[(2S)-4-[3-fluoro-5-isobutyl-2-(2H-tetrazol-5-yl)phenyl]-2-methyl-piperazin-1-yl]methyl]pyridazine]"
< 30%,< 30%,–,–,"CCC1CN(Cc2cccnn2)CCN1c1cc(CC(C)C)cc(F)c1-c1nn[nH]n1 (stereo not shown) [Compound A-181, 3-[[3-ethyl-4-[3-fluoro-5-isobutyl-2-(2H-tetrazol-5-yl)phenyl]piperazin-1-yl]methyl]pyridazine]"
< 30%,< 30%,–,–,"CC(C)Cc1cc(F)c(-c2nn[nH]n2)c(N2CC(C)N(Cc3cccnn3)CC2C)c1 (stereo not shown) [Compound A-183, 3-[[4-[3-fluoro-5-isobutyl-2-(2H-tetrazol-5-yl)phen-yl]-2,5-dimethyl-piperazin-1-yl]-methyl]pyridazine]"
< 30%,30 to 50%,17.5 µM,16%,"CC(C)Cc1cc(F)c(-c2nn[nH]n2)c(N2CCN(Cc3ccccn3)[C@@H](C)C2)c1 [Compound A-217, (2S)-4-[3-fluoro-5-isobutyl-2-(2H-tetrazol-5-yl)phenyl]-2-methyl-1-(2-pyridylmethyl)piperazine]"
< 30%,< 30%,–,16%,"Cc1cnc(CN2CCN(c3cc(CC(C)C)cc(F)c3-c3nn[nH]n3)C[C@@H]2C)s1 [Compound A-223, 2-[[(2S)-4-[3-fluoro-5-isobutyl-2-(2H-tetrazol-5-yl)phenyl]-2-methyl-piperazin-1-yl]methyl]-5-methyl-thiazole]"

SMILES,inhibition at 1 µM (human AT1R),inhibition at 10 µM (human AT1R),IC50 (human AT1R),inhibition at 10 µM (CYP1A2)
"CCC1CN(c2cc(CC(C)C)cc(F)c2-c2nn[nH]n2)CCN1Cc1cccnn1 (stereo not shown) [Compound A-178, 3-[[2-ethyl-4-[3-fluoro-5-isobutyl-2-(2H-tetrazol-5-yl)phenyl]piperazin-1-yl]methyl]pyridazine]",< 30%,< 30%,–,23.5%
